Source: patent US6969507B2, “Imaging sexual response” (Epix Pharmaceuticals, Inc., priority 1999, dated 2005)

Test: Dynamic MS-325 contrast-enhanced MRI of the genitalia/perineum during neutral and erotic video
Format: in vivo, human
Details: eight healthy women; 0.05 or 0.02 mmol/kg intravenous
Procedure: Imaging of the genitalia was performed in four pre-menopausal and four post-menopausal healthy, sexually functional women subjects after administration of MS-325 (MS-325, EPIX Medical, Inc.). All volunteers signed an IRB-approved informed consent form for the study.
Six of the subjects received an intravenous injection of 0.05 mmol/kg of MS-325 and two received an intravenous injection of 0.02 mmol/kg of MS-325. Dynamic MRI (3D SPGR, 11/1.7/35°) of the perineum was performed on all subjects while they viewed videos containing first neutral material, then erotic material and finally neutral material via a fiberoptic audiovideo system. Each segment of neutral or erotic material was up to 15 minutes in length. Subjects also filled out questionnaires in response to the videos that had them subjectively rate their degree of sexual arousal.
Serial imaging was performed at least every 3 minutes, beginning just prior to contrast injection and continuing up to 45 minutes post injection. […] Clitoral volume was measured at each time point. Relative regional blood volume was determined from signal intensity versus time curves and compared with subjective measures of arousal.
In these studies, MRI was compared with vaginal photoplethysmography to confirm that MRI accurately assessed the vascular component of the arousal response.

For `O=C([O-])CN(CCN(CC(=O)[O-])C[C@H](COP(=O)([O-])OC1CCC(c2ccccc2)(c2ccccc2)CC1)N(CC(=O)[O-])CC(=O)[O-])CC(=O)[O-].[Gd+3].[H+].[H+].[H+]` [MS-325], the “tolerability of the procedure (contrast injection and MRI)” value was “tolerated”.
